{"source": "patent US20130261177A1", "about": "“COMPOUNDS CAPABLE OF MODULATING/PRESERVING ENDOTHELIAL INTEGRITY FOR USE IN PREVENTION OR TREATMENT OF ACUTE TRAUMATIC COAGULOPATHY AND RESUSCITATED CARDIAC ARREST” (priority 2010, published 2013)", "key": {"[1]": {"system": "Protein C", "assay": "Plasma biomarker ELISA after Flolan infusion in healthy volunteers: Protein C", "assay_type": "in vivo, human", "conditions": "4 ng/kg/min intravenously for 2 h, in the hours after ceasing the infusion", "protocol": "(§1) Eight healthy volunteers were administered Flolan® (Prostacyclin) intravenously at a dose of 4 ng/kg/min for 2 h. Blood samples were analyzed for plasma biomarkers indicative of endothelial cell (thrombomodulin, PAI-1) and glycocalyx (syndecan-1) activation and/or damage, cellular necrosis (histone-complexed DNA fragments, HMGB1) and anticoagulation (protein C, antithrombin, TFPI) at the following time points: Before the infusion (Oh), immediately after ceasing the infusion (2 h) and then 4 h, 5 h, 6 h, 8 h and 24 h after starting the infusion. The concentration of the individual biomarkers in plasma was analyzed by commercially available ELISA kits according to the manufactures recommendations. Paired t-tests with p-values <0.05 were considered significant."}, "[2]": {"system": "whole blood platelet aggregation", "assay": "Whole blood impedance aggregometry (Multiplate) in healthy volunteers infused with flolan", "assay_type": "in vivo, human", "conditions": "6 healthy volunteers, 4 ng/kg/min intravenously, after 60 and 120 min infusion", "protocol": "(§2) Six healthy volunteers were administered flolan (Prostacycline) intravenously at a dose of 4 ng/kg/min for 2 h. Blood samples for whole blood viscoelastical assay (Thrombelastography [TEG]) and whole blood platelet aggregation (Multiplate) were obtained before infusion of Flolan, after 60 min infusion of Flolan and after 120 min infusion of Flolan.\nWhole blood impedance aggregometry was analyzed by the Multiple Platelet function Analyzer (MultiPlate® analyzer). Analysis employing various platelet agonists: ASPItest (activation by arachidonic acid), COLtest (activation by collagen through the collagen receptor), TRAPtest (activation by TRAP-6 stimulates the thrombin receptor on the platelet surface and ADPtest (activation by ADP stimulates platelet activation by the ADP receptors).\nMultiPlate continuously records platelet aggregation. The increase of impedance by the attachment of platelets onto the Multiplate sensors is transformed to arbitrary aggregation units (AU) and plotted against time as depicted in FIG. 2."}, "[3]": {"system": "PAI-1", "assay": "Plasma biomarker ELISA after Flolan infusion in healthy volunteers: PAI-1", "assay_type": "in vivo, human", "conditions": "4 ng/kg/min intravenously for 2 h", "protocol": "as §1"}, "[4]": {"system": "antithrombin", "assay": "Plasma biomarker ELISA after Flolan infusion in healthy volunteers: antithrombin", "assay_type": "in vivo, human", "conditions": "4 ng/kg/min intravenously for 2 h", "protocol": "as §1"}, "[5]": {"assay_type": "in vivo", "protocol": "Ninety-four critically ill patients admitted to the intensive care unit (ICU) underwent haemofiltration with or without concomitant Flolan (prostacycline) treatment. None of the patients were suffering from Acute Traumatic Coagulopathy nor from sequelae to cardiac arrest. Flolan was administered in a low dose in the filters to prevent these from clotting and consequently there was only a minor spill over of Flolan to the systemic circulation. The patients were retrospectively reviewed.\nHowever, patients in the flolan group were more severely ill as evaluated by a lower platelet count at start of hemofiltration, a higher frequency of severe thrombocytopenia, a higher frequency of DIC diagnoses, a higher maximum SOFA score and a higher SOFA score at hemofiltration initiation as compared to the patients receiving non-flolan."}, "[6]": {"system": "thrombomodulin", "assay": "Plasma biomarker ELISA after Flolan infusion in healthy volunteers: thrombomodulin", "assay_type": "in vivo, human", "conditions": "4 ng/kg/min intravenously for 2 h, prolonged for several hours after ceasing the infusion", "protocol": "as §1"}, "[7]": {"system": "whole blood haemostatic competence", "assay": "Whole blood viscoelastical assay (Thrombelastography, TEG), kaolin activated, in healthy volunteers infused with flolan", "assay_type": "in vivo, human", "conditions": "6 healthy volunteers, 4 ng/kg/min intravenously, after 60 and 120 min infusion", "protocol": "Six healthy volunteers were administered flolan (Prostacycline) intravenously at a dose of 4 ng/kg/min for 2 h. Blood samples for whole blood viscoelastical assay (Thrombelastography [TEG]) and whole blood platelet aggregation (Multiplate) were obtained before infusion of Flolan, after 60 min infusion of Flolan and after 120 min infusion of Flolan. With regard to the TEG assay this was performed as recommended by the manufacturer and 340 μl are mixed with 20 μl CaCl 0.2 M (final concentration 11.1 mM in the cup) and kaolin at 37° C. after which the haemostatic activity is recorded as depicted in FIG. 1."}, "[8]": {"assay": "Blood pressure and heart rate during intravenous flolan infusion in healthy volunteers", "assay_type": "in vivo, human", "conditions": "4 ng/kg/min intravenously for 2 h, any time point", "protocol": "as §2"}}}
{"smiles": "CCCCC[C@H](O)/C=C/[C@@H]1[C@H]2C/C(=C/CCCC(=O)O)O[C@H]2C[C@H]1O", "note": "[Flolan, epoprostenol sodium]", "values": [{"measurement": "circulating level of Protein C", "setting": "[1]", "result": "decreased"}, {"measurement": "Multiplate values (agonists ASPI, COL, ADP, TRAP), baseline vs. during infusion", "setting": "[2]", "result": "no significant difference"}, {"measurement": "circulating level of PAI-1", "setting": "[3]", "result": "declined"}, {"measurement": "circulating level of antithrombin", "setting": "[4]", "result": "decreased"}, {"measurement": "mortality at 30 days", "setting": "[5]; ICU patients, low dose Flolan in the haemofiltration filters, vs. 39% non-flolan, p=0.12", "result": 21, "unit": "%"}, {"measurement": "90 day mortality", "setting": "[5]; ICU patients, low dose Flolan in the haemofiltration filters, vs. 53% non-flolan, p=0.10", "result": 34, "unit": "%"}, {"measurement": "mortality at 365 days", "setting": "[5]; ICU patients, low dose Flolan in the haemofiltration filters, vs. 57% non-flolan, p=0.09", "result": 38, "unit": "%"}, {"measurement": "Platelet count (difference before vs. after haemofiltration)", "setting": "[5]; human, in vivo", "result": "+14"}, {"measurement": "haemostatic competence as evaluated by transfusion requirements", "setting": "[5]; human, in vivo", "result": "does not negatively influence"}, {"measurement": "total transfusion requirements and specifically of FFP during hemofiltration", "setting": "[5]; human, in vivo", "result": "increased total transfusion requirements"}, {"measurement": "circulating level of thrombomodulin", "setting": "[6]", "result": "marked decrease"}, {"measurement": "TEG values (R, Angle, MA), baseline vs. during infusion", "setting": "[7]", "result": "No significant difference"}, {"measurement": "blood pressure, change from baseline", "setting": "[8]", "result": "did not change"}, {"measurement": "heart rate, change from baseline", "setting": "[8]", "result": "did not change"}]}
